# Measurements reported in ChEMBL document CHEMBL1123887, “Fluoro ketone containing peptides as inhibitors of human renin” (J Med Chem, 1987).
# Numbered stars: 1 amine (or outer) side, 2 acyl side, 3 side chain; on linkers, the order of the positions; unused ones are H or OH. Square brackets hold non-standard residues; d marks the D form. Peptide text beside a SMILES is read from it. * marks the point of attachment. X2 = CC(C)C[C@H](N[*:1])[C@@H](O)C(F)(F)C(=O)[*:2]; X1 = CC(C)C[C@H](N[*:1])C(=O)C(F)(F)C(=O)[*:2]; X3 = CC(C)C[C@H](N[*:1])C(=O)CC(=O)[*:2]; Sta = CC(C)C[C@H](N)[C@@H](O)CC(=O)O; Boc = CC(C)(C)OC(=O)*
# Biological target: T1, Renin (Homo sapiens, UniProt P00797)
# T1 sequence (P00797 whole entry): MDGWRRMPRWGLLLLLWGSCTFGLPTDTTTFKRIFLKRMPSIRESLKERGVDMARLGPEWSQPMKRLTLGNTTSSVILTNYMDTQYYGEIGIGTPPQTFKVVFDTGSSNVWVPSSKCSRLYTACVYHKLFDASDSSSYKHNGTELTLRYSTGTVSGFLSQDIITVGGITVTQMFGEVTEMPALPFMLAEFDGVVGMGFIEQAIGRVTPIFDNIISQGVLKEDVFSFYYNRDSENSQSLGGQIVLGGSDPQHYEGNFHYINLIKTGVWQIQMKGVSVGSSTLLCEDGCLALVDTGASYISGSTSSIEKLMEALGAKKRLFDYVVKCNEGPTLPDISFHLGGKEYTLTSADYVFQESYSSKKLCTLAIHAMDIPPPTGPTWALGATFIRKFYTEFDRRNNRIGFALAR
# Test: Compound was evaluated for inhibitory activity against human kidney renin
# Format: tissue-based
row,Ki [nM],Structure (SMILES)
1,12000,CC(C)C[C@H](NC(=O)C(F)(F)[C@H](O)[C@H](CC(C)C)NC(=O)[C@@H](/C=C/[C@H](Cc1ccccc1)NC(=O)OC(C)(C)C)Cc1ccccc1)C(=O)N[C@@H](Cc1ccccc1)C(N)=O
2,1200,COC(=O)[C@@H](/C=C/[C@H](CC(C)C)NC(=O)C(F)(F)C(=O)[C@H](CC(C)C)NC(=O)[C@H](Cc1ccccc1)NC(=O)[C@H](Cc1ccccc1)NC(=O)OC(C)(C)C)Cc1ccccc1
3,120,CC(C)C[C@H](NC(=O)C(F)(F)[C@H](O)[C@H](CC(C)C)NC(=O)[C@H](Cc1ccccc1)NC(=O)[C@H](Cc1ccccc1)NC(=O)OC(C)(C)C)C(=O)N[C@@H](Cc1ccccc1)C(N)=O (Boc-FF[X2]LF-NH2)
4,16000,COC(=O)[C@@H](/C=C/[C@H](CC(C)C)NC(=O)C(F)(F)[C@H](O)[C@H](CC(C)C)NC(=O)[C@H](Cc1ccccc1)NC(=O)[C@H](Cc1ccccc1)NC(=O)OC(C)(C)C)Cc1ccccc1
5,52,CC(C)C[C@H](NC(=O)C[C@H](O)[C@H](CC(C)C)NC(=O)[C@H](Cc1ccccc1)NC(=O)[C@H](Cc1ccccc1)NC(=O)OC(C)(C)C)C(=O)N[C@@H](Cc1ccccc1)C(N)=O (Boc-FF[Sta]LF-NH2)
6,7,CC(C)C[C@H](NC(=O)C(F)(F)C(=O)[C@H](CC(C)C)NC(=O)[C@H](Cc1ccccc1)NC(=O)[C@H](Cc1ccccc1)NC(=O)OC(C)(C)C)C(=O)N[C@@H](Cc1ccccc1)C(N)=O (Boc-FF[X1]LF-NH2)
7,154,CC(C)C[C@H](NC(=O)[C@H](Cc1ccccc1)NC(=O)[C@H](Cc1ccccc1)NC(=O)OC(C)(C)C)C(=O)CC(=O)N[C@@H](CC(C)C)C(=O)N[C@@H](Cc1ccccc1)C(N)=O (Boc-FF[X3]LF-NH2)
